US20060216333A1, “Methods related to the treatment of mucosal associated conditions” (priority 2003, published 2006)
Marks after values point to notes of the source that are not given here.

How the values were obtained:
Assay type in all cases: in vivo, rat
[1] = system: rats; test: Histologic examination of vaginas and vulvas, Example 10; conditions: necropsied 24 hours after treatment initiation
Procedure: (§1) Groups of 3 rats were treated as described in Example 5 and necropsied 22 hours after the devices were removed. Vaginas and vulvas were collected, fixed and processed routinely for histologic examination. Inflammation was scored as follows: 0=none, 1=minimal, 2=mild, 3=moderate, 4=severe. The values in the tables are the mean of the scores for 3 rats.
Cotton devices were prepared as described in Example 1. The devices were saturated with a solution containing 5% by weight of IRM 3 in 50/50 w/w isostearic acid/isopropyl myristate. One group of 5 rats was dosed intravaginally with the devices. The devices were removed after 2 hours. A second group of 5 rats was dosed intravaginally with 5% IRM 3 cream. The cream was washed out after 2 hours. A third group of 5 rats was dosed intravaginally with 5% IRM 3 cream but the cream was not removed. The rats were necropsied 24 hours after treatment initiation. Vaginas and vulvas were collected, fixed and processed routinely for histologic examination. The scoring system described in Example 9 was used.

[2] = system: TNF; test: Serum and vaginal tissue TNF after intravaginal dosing of rats (ELISA); conditions: for TNF Tissue: vaginal tissue, per 200 mg
Procedure: (§2) In the examples below the serum and intravaginal cytokine data were obtained using the following general test method.
(§3) Rats were acclimated to collars (Lomir Biomedical, Malone, N.Y.) around the neck on two consecutive days prior to actual dosing. Rats were collared to prevent removal of the device and ingestion of the drug. Animals were then dosed intravaginally with a removable device or with […] of cream. Single dosed rats received one intravaginal dose with samples collected at various times following dosing. Blood was collected by cardiac puncture. Blood was allowed to clot briefly at room temperature and serum was separated from the clot via centrifugation. The serum was stored at −20° C. until it was analyzed for cytokine concentrations.
(§4) Following blood collection, the rats were euthanized and their vaginal tract, including the cervix, was then removed and the tissue was weighed, placed in a sealed 1.8 mL cryovial and flash frozen in liquid nitrogen. The frozen vaginal tissue sample was then suspended in 1.0 mL of RPMI medium (Celox, St. Paul, Minn.) containing 10% fetal bovine serum (Atlas, Fort Collins, Colo.), 2 mM L-glutamine, penicillin/streptomycin and 2-mercaptoethanol (RPMI complete) combined with a protease inhibitor cocktail set III (Calbiochem, San Diego, Calif.). The tissue was homogenized using a Tissue Tearor (Biospec Products, Bartlesville, Okla.) for approximately one minute. The tissue suspension was then centrifuged at 2000 rpm for 10 minutes under refrigeration to pellet the debris, and the supernatant collected and stored at −20° C. until analyzed for cytokine concentrations.
(§5) ELISA kits for rat TNF were purchased from BD PharMingen (San Diego, Calif.) and the rat MCP-1 ELISA kits were purchased from BioSource Intl. (Camarillo, Calif.).
(§6) Both kits were performed according to manufacturer's specifications. Results for both TNF and MCP-1 are expressed in pg/mL and are normalized per 200 mg of tissue. […] “Post dosing” means after treatment initiation. For example, if a device was inserted a time 0 hours and removed at 2 hours and cytokines were assayed at 4 hours, then the cytokines were assayed at 4 hours post dosing.

[3] = system: rats; test: Histologic examination of vaginas and vulvas, Example 9; conditions: removed after 2 hours, necropsied 22 hours after removal; for Vagina Erosion or ulceration / Vulva Erosion or ulceration: incidence; for Vagina Inflammation / Vulva Inflammation: mean score, 0=none to 4=severe
Procedure: Devices were prepared from either cotton as described in Example 1 or from polyurethane foam (Medisorb 100—1.25:Polysorbate 60 at 1% concentration at 1.25/1 ratio, from Lendell Manufacturing, Inc, St. Charles, Mich.). The devices were saturated with one of the following solutions: 0.1% ERM 3 in 50/50 ISA/IPM; 1.0% IRM 3 in 50/50 ISA/IPM; 3.0% IRM 3 in 50/50 ISA/IPM or with 50/50 ISA/IPM (vehicle). Rats were dosed intravaginally; the devices were removed after 2 hours. […] Cytokines were assayed at 4 hours post dosing. The results are shown in the table below where each value is the mean of the values for 3 rats.
as §1

[4] = system: MCP-1; test: Serum and vaginal tissue MCP-1 after intravaginal dosing of rats (ELISA); conditions: for MCP-1 Tissue: vaginal tissue, per 200 mg
Procedure: as §2, §3, §4, §5, §6

[5] = incidence, cotton device 5% removed after 2 hours
[6] = 2 hr post dose, 5% in 50/50 ISA/IPM, cotton pellet device removed after 2 hours, Example 7
[7] = 4 hours post dosing, 0.1% in 50/50 ISA/IPM, cotton device removed after 2 hours, Example 5
[8] = 4 hours post dosing, 0.1% in 50/50 ISA/IPM, foam device removed after 2 hours, Example 5
[9] = 4 hours post dosing, 1.0% in 50/50 ISA/IPM, cotton device removed after 2 hours, Example 5
[10] = 4 hours post dosing, 1.0% in 50/50 ISA/IPM, foam device removed after 2 hours, Example 5
[11] = 4 hours post dosing, 3.0% in 50/50 ISA/IPM, cotton device removed after 2 hours, Example 5
[12] = 4 hours post dosing, 3.0% in 50/50 ISA/IPM, foam device removed after 2 hours, Example 5
[13] = 4 hr post dose, 5% in 50/50 ISA/IPM, cotton pellet device removed after 2 hours, Example 7
[14] = 6 hr post dose, 5% in 50/50 ISA/IPM, cotton pellet device removed after 2 hours, Example 7

CC(C)Cn1cnc2c(N)nc3cccnc3c21 [IRM 3, 1-(2-methylpropyl)-1H-imidazo[4,5-c][1,5]naphthyridin-4-amine]
Vagina - erosion [1, 5]: 0/5
Vagina - ulceration [1, 5]: 0/5
Vulva - preulcer [1, 5]: 3/5
Vulva - ulceration [1, 5]: 0/5
Vagina - Inflammation ([1]; mean score, 0=none to 4=severe, cotton device 5% in 50/50 ISA/IPM removed after 2 hours): 3.1
Vulva - Inflammation ([1]; mean score, 0=none to 4=severe, cotton device 5% removed after 2 hours): 1.7
TNF Serum [2, 6]: 4 pg/mL
TNF Serum [2, 7]: 0 pg/mL
TNF Serum [2, 8]: 0 pg/mL
TNF Serum [2, 9]: 0 pg/mL
TNF Serum [2, 10]: 0 pg/mL
TNF Serum [2, 11]: 0 pg/mL
TNF Serum [2, 12]: 0 pg/mL
TNF Serum [2, 13]: 3 pg/mL
TNF Serum [2, 14]: 5 pg/mL
TNF Tissue [2, 6]: 809 pg/mL
TNF Tissue [2, 7]: 108 pg/mL
TNF Tissue [2, 8]: 85 pg/mL
TNF Tissue [2, 9]: 173 pg/mL
TNF Tissue [2, 10]: 148 pg/mL
TNF Tissue [2, 11]: 175 pg/mL
TNF Tissue [2, 12]: 302 pg/mL
TNF Tissue [2, 13]: 608 pg/mL
TNF Tissue [2, 14]: 114 pg/mL
Vagina Erosion or ulceration ([3]; cotton device 0.1%): 0/3
Vulva Erosion or ulceration ([3]; cotton device 0.1%): 0/3
Vagina Erosion or ulceration ([3]; cotton device 1.0%): 0/3
Vulva Erosion or ulceration ([3]; cotton device 1.0%, tissue from 1 rat not assessable): 0/2*
Vagina Erosion or ulceration ([3]; cotton device 3.0%): 0/3
Vulva Erosion or ulceration ([3]; cotton device 3.0%): 0/3
Vagina Erosion or ulceration ([3]; foam device 0.1%): 0/3
Vulva Erosion or ulceration ([3]; foam device 0.1%): 0/3
Vagina Erosion or ulceration ([3]; foam device 1.0%): 0/3
Vulva Erosion or ulceration ([3]; foam device 1.0%): 0/3
Vagina Erosion or ulceration ([3]; foam device 3.0%): 0/3
Vulva Erosion or ulceration ([3]; foam device 3.0%, tissue from 1 rat not assessable): 0/2*
Vagina Inflammation ([3]; cotton device 0.1% in 50/50 ISA/IPM): 1.0
Vulva Inflammation ([3]; cotton device 0.1%): 0.33
Vagina Inflammation ([3]; cotton device 1.0% in 50/50 ISA/IPM): 2.5
Vulva Inflammation ([3]; cotton device 1.0%): 0.5
Vagina Inflammation ([3]; cotton device 3.0% in 50/50 ISA/IPM): 3.17
Vulva Inflammation ([3]; cotton device 3.0%): 2.17
Vagina Inflammation ([3]; foam device 0.1% in 50/50 ISA/IPM): 2.17
Vulva Inflammation ([3]; foam device 0.1%): 0.33
Vagina Inflammation ([3]; foam device 1.0% in 50/50 ISA/IPM): 2.83
Vulva Inflammation ([3]; foam device 1.0%): 0.33
Vagina Inflammation ([3]; foam device 3.0% in 50/50 ISA/IPM): 2.5
Vulva Inflammation ([3]; foam device 3.0%): 1.75
MCP-1 Serum [4, 6]: 95 pg/mL
MCP-1 Serum [4, 7]: 72 pg/mL
MCP-1 Serum [4, 8]: 77 pg/mL
MCP-1 Serum [4, 9]: 111 pg/mL
MCP-1 Serum [4, 10]: 86 pg/mL
MCP-1 Serum [4, 11]: 79 pg/mL
MCP-1 Serum [4, 12]: 105 pg/mL
MCP-1 Serum [4, 13]: 114 pg/mL
MCP-1 Serum [4, 14]: 171 pg/mL
MCP-1 Tissue [4, 6]: 815 pg/mL
MCP-1 Tissue [4, 7]: 179 pg/mL
MCP-1 Tissue [4, 8]: 143 pg/mL
MCP-1 Tissue [4, 9]: 468 pg/mL
MCP-1 Tissue [4, 10]: 279 pg/mL
MCP-1 Tissue [4, 11]: 402 pg/mL
MCP-1 Tissue [4, 12]: 351 pg/mL
MCP-1 Tissue [4, 13]: 1260 pg/mL
MCP-1 Tissue [4, 14]: 840 pg/mL
